Measured values as given in the kinase profiling compilation of Christmann-Franck et al. (2016).
pIC50: −log10 of the molar value. One block for each molecule: values may come before it.

Assays:
HIPK1 (human) [1] = biological target: HIPK1 (human) (UniProt Q86Z02); experiment: SelectScreen, TR FRET
HIPK2 (human) = HIPK2 (human) (UniProt Q9H2X6); experiment: SelectScreen, TR FRET
PLK3 (human) = PLK3 (human) (UniProt Q9H4B4); experiment: KINOMEscan competition binding; settings: compound 10.0 µM
[2] = system: EIF2AK4 KD2 (human), Q9P2K8 [S808G]; experiment: KINOMEscan competition binding; settings: compound 10.0 µM
MYLK (human) = MYLK (human) (UniProt Q15746); experiment: KINOMEscan competition binding; settings: compound 10.0 µM
RPS6KA2 KD2 (human) = RPS6KA2 KD2 (human) (UniProt Q15349); experiment: KINOMEscan competition binding; settings: compound 10.0 µM
DCLK1 (human) = DCLK1 (human) (UniProt O15075); experiment: KINOMEscan competition binding; settings: compound 10.0 µM
PLK1 (human) = PLK1 (human) (UniProt P53350); experiment: KINOMEscan competition binding; settings: compound 10.0 µM
STK33 (human) = STK33 (human) (UniProt Q9BYT3); experiment: KINOMEscan competition binding; settings: compound 10.0 µM
PRKD2 (human) = PRKD2 (human) (UniProt Q9BZL6); experiment: KINOMEscan competition binding; settings: compound 10.0 µM
TTK (human) = TTK (human) (UniProt P33981); experiment: KINOMEscan competition binding; settings: compound 10.0 µM
CHEK1 (human) = CHEK1 (human) (UniProt O14757); experiment: KINOMEscan competition binding; settings: compound 10.0 µM
PRKD1 (human) = PRKD1 (human) (UniProt Q15139); experiment: KINOMEscan competition binding; settings: compound 10.0 µM
PLK4 (human) = PLK4 (human) (UniProt O00444); experiment: KINOMEscan competition binding; settings: compound 10.0 µM
GAK (human) = GAK (human) (UniProt O14976); experiment: KINOMEscan competition binding; settings: compound 10.0 µM
RPS6KA6 KD2 (human) = RPS6KA6 KD2 (human) (UniProt Q9UK32); experiment: KINOMEscan competition binding; settings: compound 10.0 µM
DCLK2 (human) = DCLK2 (human) (UniProt Q8N568); experiment: KINOMEscan competition binding; settings: compound 10.0 µM
RPS6KA1 KD2 (human) = RPS6KA1 KD2 (human) (UniProt Q15418); experiment: KINOMEscan competition binding; settings: compound 10.0 µM
Chain of RPS6KA1 KD2 (human) (Q15418 whole entry, looked up): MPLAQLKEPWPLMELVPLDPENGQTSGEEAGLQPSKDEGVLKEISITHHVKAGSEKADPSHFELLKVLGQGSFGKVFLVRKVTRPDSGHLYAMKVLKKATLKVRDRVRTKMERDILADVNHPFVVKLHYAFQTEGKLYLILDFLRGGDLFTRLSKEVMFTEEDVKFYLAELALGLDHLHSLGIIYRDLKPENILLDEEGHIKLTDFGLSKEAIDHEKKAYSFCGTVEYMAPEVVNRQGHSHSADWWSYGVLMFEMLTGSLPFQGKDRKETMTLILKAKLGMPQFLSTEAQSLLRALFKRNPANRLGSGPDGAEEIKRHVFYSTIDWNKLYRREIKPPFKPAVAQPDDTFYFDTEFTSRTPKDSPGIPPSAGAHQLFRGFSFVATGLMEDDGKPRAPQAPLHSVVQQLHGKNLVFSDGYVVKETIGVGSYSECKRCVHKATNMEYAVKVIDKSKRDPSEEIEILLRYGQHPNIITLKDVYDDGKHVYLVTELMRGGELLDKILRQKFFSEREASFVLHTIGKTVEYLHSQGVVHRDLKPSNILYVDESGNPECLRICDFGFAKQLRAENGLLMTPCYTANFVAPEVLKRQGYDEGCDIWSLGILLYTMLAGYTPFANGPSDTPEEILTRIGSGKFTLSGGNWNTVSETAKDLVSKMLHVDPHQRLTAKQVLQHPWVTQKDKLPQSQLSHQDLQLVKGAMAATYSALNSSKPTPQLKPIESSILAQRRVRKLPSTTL

RPS6KA4 KD2 (human) = RPS6KA4 KD2 (human) (UniProt O75676); experiment: KINOMEscan competition binding; settings: compound 10.0 µM
Chain of RPS6KA4 KD2 (human) (O75676 whole entry, looked up): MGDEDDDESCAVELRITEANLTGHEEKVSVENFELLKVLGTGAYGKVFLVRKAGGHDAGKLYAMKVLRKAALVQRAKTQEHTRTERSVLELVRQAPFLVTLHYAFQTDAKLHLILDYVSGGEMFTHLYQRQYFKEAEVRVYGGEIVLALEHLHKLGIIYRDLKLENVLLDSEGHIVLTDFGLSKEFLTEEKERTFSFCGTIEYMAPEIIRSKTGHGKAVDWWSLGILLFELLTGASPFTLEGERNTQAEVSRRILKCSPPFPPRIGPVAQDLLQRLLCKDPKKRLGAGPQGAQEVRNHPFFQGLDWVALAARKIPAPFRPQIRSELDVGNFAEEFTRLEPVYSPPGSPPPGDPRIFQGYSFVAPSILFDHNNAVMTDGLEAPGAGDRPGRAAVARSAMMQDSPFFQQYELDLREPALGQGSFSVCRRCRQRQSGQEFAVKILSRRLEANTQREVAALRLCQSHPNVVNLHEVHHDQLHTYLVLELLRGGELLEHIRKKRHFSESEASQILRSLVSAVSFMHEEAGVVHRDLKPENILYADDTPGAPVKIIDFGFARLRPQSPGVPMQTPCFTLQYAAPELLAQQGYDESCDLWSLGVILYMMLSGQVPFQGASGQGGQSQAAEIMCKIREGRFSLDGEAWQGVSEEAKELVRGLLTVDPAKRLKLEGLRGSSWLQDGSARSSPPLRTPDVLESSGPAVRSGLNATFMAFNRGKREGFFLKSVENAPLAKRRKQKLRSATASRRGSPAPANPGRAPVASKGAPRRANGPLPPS

PIM1 (human) [3] = biological target: PIM1 (human) (UniProt P11309); experiment: SelectScreen, TR FRET
Chain of PIM1 (human) (P11309 whole entry, looked up): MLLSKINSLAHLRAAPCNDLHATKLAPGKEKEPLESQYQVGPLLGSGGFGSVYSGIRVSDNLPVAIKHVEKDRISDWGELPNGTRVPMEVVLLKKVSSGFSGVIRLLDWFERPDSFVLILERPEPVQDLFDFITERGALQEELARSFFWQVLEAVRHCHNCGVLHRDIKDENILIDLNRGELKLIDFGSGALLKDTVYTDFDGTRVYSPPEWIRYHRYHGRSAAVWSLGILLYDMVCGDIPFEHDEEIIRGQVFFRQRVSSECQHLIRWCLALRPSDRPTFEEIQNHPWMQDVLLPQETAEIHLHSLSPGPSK

PIM2 (human) [4] = biological target: PIM2 (human) (UniProt Q9P1W9); experiment: SelectScreen, TR FRET
Chain of PIM2 (human) (Q9P1W9 whole entry, looked up): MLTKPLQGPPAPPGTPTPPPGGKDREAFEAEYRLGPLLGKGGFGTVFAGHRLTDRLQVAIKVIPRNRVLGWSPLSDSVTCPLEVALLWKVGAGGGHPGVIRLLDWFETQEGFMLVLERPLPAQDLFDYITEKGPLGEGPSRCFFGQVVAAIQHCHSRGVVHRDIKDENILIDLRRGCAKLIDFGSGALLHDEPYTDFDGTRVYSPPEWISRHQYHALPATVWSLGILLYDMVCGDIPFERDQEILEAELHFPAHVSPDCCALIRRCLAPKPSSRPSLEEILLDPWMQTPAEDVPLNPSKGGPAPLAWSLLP

CLK4 (human) = CLK4 (human) (UniProt Q9HAZ1); experiment: KINOMEscan competition binding; settings: compound 10.0 µM
DYRK1B (human) = DYRK1B (human) (UniProt Q9Y463); experiment: KINOMEscan competition binding; settings: compound 10.0 µM
TAOK1 (human) = TAOK1 (human) (UniProt Q7L7X3); experiment: KINOMEscan competition binding; settings: compound 10.0 µM
MINK1 (human) = MINK1 (human) (UniProt Q8N4C8); experiment: KINOMEscan competition binding; settings: compound 10.0 µM
TAOK3 (human) = TAOK3 (human) (UniProt Q9H2K8); experiment: KINOMEscan competition binding; settings: compound 10.0 µM
STK17A (human) = STK17A (human) (UniProt Q9UEE5); experiment: KINOMEscan competition binding; settings: compound 10.0 µM
Chain of STK17A (human) (Q9UEE5 whole entry, looked up): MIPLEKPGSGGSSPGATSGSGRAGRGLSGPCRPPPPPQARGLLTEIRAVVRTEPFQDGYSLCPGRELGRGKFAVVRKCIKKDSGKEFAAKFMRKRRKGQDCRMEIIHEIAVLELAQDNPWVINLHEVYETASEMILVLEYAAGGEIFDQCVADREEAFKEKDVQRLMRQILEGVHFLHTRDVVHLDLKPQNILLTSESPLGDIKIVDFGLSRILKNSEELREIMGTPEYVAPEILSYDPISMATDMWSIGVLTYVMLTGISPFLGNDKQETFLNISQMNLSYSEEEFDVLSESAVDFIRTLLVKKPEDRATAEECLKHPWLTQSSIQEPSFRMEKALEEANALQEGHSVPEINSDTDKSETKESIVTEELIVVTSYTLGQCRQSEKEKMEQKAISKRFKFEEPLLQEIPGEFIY

MAPK15 (human) = MAPK15 (human) (UniProt Q8TD08); experiment: KINOMEscan competition binding; settings: compound 10.0 µM
PIM1 (human) [5] = biological target: PIM1 (human) (UniProt P11309); experiment: KINOMEscan competition binding; settings: compound 10.0 µM
CDK7 (human) = CDK7 (human) (UniProt P50613); experiment: KINOMEscan competition binding; settings: compound 10.0 µM
CAMKK1 (human) = CAMKK1 (human) (UniProt Q8N5S9); experiment: KINOMEscan competition binding; settings: compound 10.0 µM
CSNK2A1 (human) = CSNK2A1 (human) (UniProt P68400); experiment: KINOMEscan competition binding; settings: compound 10.0 µM
CLK2 (human) = CLK2 (human) (UniProt P49760); experiment: KINOMEscan competition binding; settings: compound 10.0 µM
PIM3 (human) = PIM3 (human) (UniProt Q86V86); experiment: KINOMEscan competition binding; settings: compound 10.0 µM
TGFBR2 (human) = TGFBR2 (human) (UniProt P37173); experiment: KINOMEscan competition binding; settings: compound 10.0 µM
PIM2 (human) [6] = biological target: PIM2 (human) (UniProt Q9P1W9); experiment: KINOMEscan competition binding; settings: compound 10.0 µM
DAPK2 (human) = DAPK2 (human) (UniProt Q9UIK4); experiment: KINOMEscan competition binding; settings: compound 10.0 µM
HIPK1 (human) [7] = biological target: HIPK1 (human) (UniProt Q86Z02); experiment: KINOMEscan competition binding; settings: compound 10.0 µM
STK17B (human) = STK17B (human) (UniProt O94768); experiment: KINOMEscan competition binding; settings: compound 10.0 µM
CLK1 (human) = CLK1 (human) (UniProt P49759); experiment: KINOMEscan competition binding; settings: compound 10.0 µM
[8] = system: PIK3CA (human), P42336 [E545K]; experiment: KINOMEscan competition binding; settings: compound 10.0 µM

Chain of HIPK1 (human) (Q86Z02 whole entry, looked up): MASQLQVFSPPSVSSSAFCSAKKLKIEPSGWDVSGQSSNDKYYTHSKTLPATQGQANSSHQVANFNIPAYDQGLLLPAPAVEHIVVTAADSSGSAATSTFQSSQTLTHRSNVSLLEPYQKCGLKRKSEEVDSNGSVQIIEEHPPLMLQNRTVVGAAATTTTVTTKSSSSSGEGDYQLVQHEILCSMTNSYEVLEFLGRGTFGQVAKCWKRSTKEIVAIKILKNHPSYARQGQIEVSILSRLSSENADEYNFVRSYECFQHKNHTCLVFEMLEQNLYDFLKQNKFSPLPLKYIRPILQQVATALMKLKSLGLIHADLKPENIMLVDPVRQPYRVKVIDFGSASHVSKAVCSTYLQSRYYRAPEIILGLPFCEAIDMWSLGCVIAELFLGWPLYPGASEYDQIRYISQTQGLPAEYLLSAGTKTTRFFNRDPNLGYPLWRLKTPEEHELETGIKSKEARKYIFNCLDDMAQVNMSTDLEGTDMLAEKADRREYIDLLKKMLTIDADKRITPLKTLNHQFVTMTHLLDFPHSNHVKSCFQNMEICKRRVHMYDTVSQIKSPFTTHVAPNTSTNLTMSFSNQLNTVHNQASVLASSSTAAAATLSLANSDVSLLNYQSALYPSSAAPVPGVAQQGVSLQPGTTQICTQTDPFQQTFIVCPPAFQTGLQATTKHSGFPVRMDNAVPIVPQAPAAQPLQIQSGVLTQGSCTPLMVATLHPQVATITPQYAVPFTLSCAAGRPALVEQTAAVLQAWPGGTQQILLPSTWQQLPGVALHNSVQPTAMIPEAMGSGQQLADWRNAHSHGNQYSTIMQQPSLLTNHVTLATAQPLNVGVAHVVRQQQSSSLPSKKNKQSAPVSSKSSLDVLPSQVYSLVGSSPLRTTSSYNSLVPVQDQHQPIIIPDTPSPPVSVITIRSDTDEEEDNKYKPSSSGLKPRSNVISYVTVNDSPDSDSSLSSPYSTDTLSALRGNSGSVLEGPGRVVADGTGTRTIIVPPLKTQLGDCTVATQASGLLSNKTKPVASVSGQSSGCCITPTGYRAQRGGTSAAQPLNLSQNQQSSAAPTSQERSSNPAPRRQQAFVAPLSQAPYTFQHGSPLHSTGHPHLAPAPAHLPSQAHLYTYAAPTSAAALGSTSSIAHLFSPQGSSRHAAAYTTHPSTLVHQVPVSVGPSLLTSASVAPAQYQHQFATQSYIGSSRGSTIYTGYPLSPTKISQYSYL
Chain of HIPK2 (human) (Q9H2X6 whole entry, looked up): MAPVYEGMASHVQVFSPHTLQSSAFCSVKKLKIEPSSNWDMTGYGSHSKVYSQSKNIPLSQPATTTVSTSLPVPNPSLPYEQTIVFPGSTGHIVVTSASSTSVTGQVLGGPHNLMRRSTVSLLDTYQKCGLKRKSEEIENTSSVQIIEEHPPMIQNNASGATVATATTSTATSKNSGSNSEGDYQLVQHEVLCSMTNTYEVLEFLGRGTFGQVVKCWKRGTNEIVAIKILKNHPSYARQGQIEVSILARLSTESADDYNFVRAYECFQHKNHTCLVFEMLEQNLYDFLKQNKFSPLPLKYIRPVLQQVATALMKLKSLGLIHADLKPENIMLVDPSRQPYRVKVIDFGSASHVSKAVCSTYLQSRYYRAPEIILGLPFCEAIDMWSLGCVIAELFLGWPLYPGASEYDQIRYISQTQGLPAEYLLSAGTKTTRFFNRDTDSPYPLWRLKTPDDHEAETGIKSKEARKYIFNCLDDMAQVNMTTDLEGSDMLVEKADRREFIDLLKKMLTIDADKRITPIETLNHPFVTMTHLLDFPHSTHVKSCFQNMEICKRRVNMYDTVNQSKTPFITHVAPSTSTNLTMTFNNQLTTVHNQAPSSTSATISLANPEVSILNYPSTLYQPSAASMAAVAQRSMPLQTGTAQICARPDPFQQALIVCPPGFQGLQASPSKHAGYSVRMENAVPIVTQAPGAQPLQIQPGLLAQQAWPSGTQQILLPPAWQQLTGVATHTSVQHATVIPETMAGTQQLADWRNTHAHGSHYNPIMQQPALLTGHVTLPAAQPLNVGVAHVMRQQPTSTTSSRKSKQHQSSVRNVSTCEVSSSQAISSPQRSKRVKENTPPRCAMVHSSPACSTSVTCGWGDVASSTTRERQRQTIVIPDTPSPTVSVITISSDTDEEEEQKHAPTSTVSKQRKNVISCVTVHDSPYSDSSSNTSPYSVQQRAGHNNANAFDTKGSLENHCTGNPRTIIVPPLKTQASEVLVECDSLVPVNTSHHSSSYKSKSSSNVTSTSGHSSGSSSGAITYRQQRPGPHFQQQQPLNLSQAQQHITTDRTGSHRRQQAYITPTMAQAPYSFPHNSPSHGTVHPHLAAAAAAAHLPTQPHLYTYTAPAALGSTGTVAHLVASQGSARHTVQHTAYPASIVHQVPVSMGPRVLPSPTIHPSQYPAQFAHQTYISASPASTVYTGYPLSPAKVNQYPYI

Structure (SMILES): Nc1ccc(-c2cc(/C=C3\SC(=O)NC3=O)c[nH]c2=O)cn1
pIC50 (HIPK1 (human) [1]): 6.30
pIC50 (HIPK2 (human)): 6.45

Structure (SMILES): COc1cc(N2CCC(N3CCN(C)CC3)CC2)ccc1Nc1ncc2c(n1)N1CCCC1CC(=O)N2C (stereo not given)
kinase still bound, per cent of control (PLK3 (human)): 0.95%
kinase still bound, per cent of control [2]: 32%
kinase still bound, per cent of control (MYLK (human)): 24%
kinase still bound, per cent of control (RPS6KA2 KD2 (human)): 13%
kinase still bound, per cent of control (DCLK1 (human)): 0.65%
kinase still bound, per cent of control (PLK1 (human)): 1.8%
kinase still bound, per cent of control (STK33 (human)): 7%
kinase still bound, per cent of control (PRKD2 (human)): 23%
kinase still bound, per cent of control (TTK (human)): 2.4%
kinase still bound, per cent of control (CHEK1 (human)): 29%
kinase still bound, per cent of control (PRKD1 (human)): 19%
kinase still bound, per cent of control (PLK4 (human)): 26%
kinase still bound, per cent of control (GAK (human)): 2.6%
kinase still bound, per cent of control (RPS6KA6 KD2 (human)): 17%
kinase still bound, per cent of control (DCLK2 (human)): 25%
kinase still bound, per cent of control (RPS6KA1 KD2 (human)): 28%
kinase still bound, per cent of control (RPS6KA4 KD2 (human)): 30%

Structure (SMILES): CS(=O)(=O)Nc1ccc(-c2cc(/C=C3\SC(=O)NC3=O)c[nH]c2=O)cc1
pIC50 (PIM1 (human) [3]): 6.82
pIC50 (PIM2 (human) [4]): 6.67
pIC50 (HIPK1 (human) [1]): 6.28
pIC50 (HIPK2 (human)): 6.59

Structure (SMILES): CC(=O)Nc1ccc(-c2ccc(/C=C3\SC(=N)NC3=O)o2)c(O)c1
pIC50 (PIM1 (human) [3]): 6.02
pIC50 (PIM2 (human) [4]): 6.53
kinase still bound, per cent of control (CLK4 (human)): 13%
kinase still bound, per cent of control (DYRK1B (human)): 23%
kinase still bound, per cent of control (TAOK1 (human)): 4%
kinase still bound, per cent of control (MINK1 (human)): 33%
kinase still bound, per cent of control (TAOK3 (human)): 8.6%
kinase still bound, per cent of control (STK17A (human)): 0.7%
kinase still bound, per cent of control (MAPK15 (human)): 0.4%
kinase still bound, per cent of control (PIM1 (human) [5]): 1.6%
kinase still bound, per cent of control (CDK7 (human)): 3.9%
kinase still bound, per cent of control (CAMKK1 (human)): 30%
kinase still bound, per cent of control (CSNK2A1 (human)): 32%
kinase still bound, per cent of control (CLK2 (human)): 4.8%
kinase still bound, per cent of control (PIM3 (human)): 2.2%
kinase still bound, per cent of control (TGFBR2 (human)): 13%
kinase still bound, per cent of control (PIM2 (human) [6]): 1.6%
kinase still bound, per cent of control (DAPK2 (human)): 24%
kinase still bound, per cent of control (HIPK1 (human) [7]): 2.6%
kinase still bound, per cent of control (STK17B (human)): 3%
kinase still bound, per cent of control (CLK1 (human)): 16%
kinase still bound, per cent of control [8]: 25%
kinase still bound, per cent of control (RPS6KA4 KD2 (human)): 29%

Further lines, results first:

pIC50 (HIPK1 (human) [1]): 7.00
pIC50 (HIPK2 (human)): 7.03
Structure (SMILES): Nc1cccc(-c2cc(/C=C3\SC(=S)NC3=O)c[nH]c2=O)c1

pIC50 (HIPK1 (human) [1]): < 5.00
pIC50 (HIPK2 (human)): < 5.00
Structure (SMILES): Nc1cccc(-c2cc(/C=C3\NC(=O)NC3=O)c[nH]c2=O)c1
